Assay results as given in patent US4877881A, “Process of preparing pyrazoles, isoxazoles and analogs thereof having activity as 5-lipoxygenase inhibitors” (Warner-Lambert Company, priority 1988, dated 1989).

Columns and labels:
cyclooxygenase = biological target: T1, cyclooxygenase (Rattus norvegicus, UniProt Q63921); test: ARBC Whole Cell Cyclooxygenase Assay in RBL-1 cells (PGF2α RIA); type: cell-based; settings: RBL-1 intact cell cyclooxygenase; A23187 5 μM
T1 construct: RBL-1 intact cell cyclooxygenase IC50 values; endogenous in cells; host or cells: RBL-1 rat basophilic leukemia cells (American Type Culture Collection)
T1 sequence (Q63921 27-602): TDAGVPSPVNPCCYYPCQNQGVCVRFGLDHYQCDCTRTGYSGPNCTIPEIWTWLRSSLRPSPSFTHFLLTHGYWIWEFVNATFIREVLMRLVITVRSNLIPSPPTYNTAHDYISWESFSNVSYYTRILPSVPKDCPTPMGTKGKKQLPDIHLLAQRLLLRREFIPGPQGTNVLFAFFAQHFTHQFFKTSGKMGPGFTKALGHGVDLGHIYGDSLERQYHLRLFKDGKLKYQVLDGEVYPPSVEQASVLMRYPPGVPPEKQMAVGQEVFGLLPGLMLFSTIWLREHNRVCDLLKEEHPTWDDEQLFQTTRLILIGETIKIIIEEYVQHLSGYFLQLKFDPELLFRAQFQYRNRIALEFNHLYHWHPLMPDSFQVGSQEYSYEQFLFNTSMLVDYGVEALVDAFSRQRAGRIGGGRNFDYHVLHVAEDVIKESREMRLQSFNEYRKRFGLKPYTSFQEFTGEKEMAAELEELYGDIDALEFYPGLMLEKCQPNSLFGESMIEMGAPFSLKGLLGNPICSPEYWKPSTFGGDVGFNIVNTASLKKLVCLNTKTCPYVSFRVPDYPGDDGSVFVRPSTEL
Procedure: (§1) ARBL/ARBC Whole Cell 5-Lipoxygenase and Cyclooxygenase Assays
(§2) The rat basophilic leukemia cell line (RBL-1) was obtained from the American Type Culture Collection (Rockville, Md.).
(§3) Radioimmuno assay (RIA) kits of LTB4 and PGF2α were obtained from Amersham (Arlington Heights, Ill.) and Seragen (Boston, Mass.) respectively.
(§4) All tissue culture media were obtained from GIBO (Gran Island, N.Y.).
(§5) RBL-1 cells were grown in culture (suspension) in Eagle's minimum essential medium supplemented with 12% fetal bovine serum and 1:100 antibiotic-antimycotic mixture at 37° C. in an incubator supplied with air-5% carbon dioxide. Cells were harvested by centrifugation. They were washed with cold phosphate buffered saline pH 7.4 (PBS; NaCl, 7.1 g; Na2 HOP4, 1.15 g; KH2 PO4, 0.2 g; and KCl, 0.2 g/L). […] Calcium ionophore A23187 (5 μM) was added and cells were incubated for seven minutes at 37° C. The reaction was stopped by chilling the tubes in ice for ten minutes. Cells were separated by centrifugation and the supernatant was stored at -20°. Aliquots (100 μl) were analyzed for LTB4 and PGF2α using radioimmuno assay kits as provided by the supplier.

5-lipoxygenase = biological target: T2, 5-lipoxygenase (Rattus norvegicus, UniProt P12527); test: ARBL Whole Cell 5-Lipoxygenase Assay in RBL-1 cells (LTB4 RIA); type: cell-based; settings: RBL-1 intact cell 5-lipoxygenase; A23187 5 μM
T2 construct: ARBL/ARBC Whole Cell 5-Lipoxygenase and Cyclooxygenase Assays; endogenous in cells; host or cells: RBL-1 rat basophilic leukemia cells (American Type Culture Collection)
T2 sequence (P12527 1-673): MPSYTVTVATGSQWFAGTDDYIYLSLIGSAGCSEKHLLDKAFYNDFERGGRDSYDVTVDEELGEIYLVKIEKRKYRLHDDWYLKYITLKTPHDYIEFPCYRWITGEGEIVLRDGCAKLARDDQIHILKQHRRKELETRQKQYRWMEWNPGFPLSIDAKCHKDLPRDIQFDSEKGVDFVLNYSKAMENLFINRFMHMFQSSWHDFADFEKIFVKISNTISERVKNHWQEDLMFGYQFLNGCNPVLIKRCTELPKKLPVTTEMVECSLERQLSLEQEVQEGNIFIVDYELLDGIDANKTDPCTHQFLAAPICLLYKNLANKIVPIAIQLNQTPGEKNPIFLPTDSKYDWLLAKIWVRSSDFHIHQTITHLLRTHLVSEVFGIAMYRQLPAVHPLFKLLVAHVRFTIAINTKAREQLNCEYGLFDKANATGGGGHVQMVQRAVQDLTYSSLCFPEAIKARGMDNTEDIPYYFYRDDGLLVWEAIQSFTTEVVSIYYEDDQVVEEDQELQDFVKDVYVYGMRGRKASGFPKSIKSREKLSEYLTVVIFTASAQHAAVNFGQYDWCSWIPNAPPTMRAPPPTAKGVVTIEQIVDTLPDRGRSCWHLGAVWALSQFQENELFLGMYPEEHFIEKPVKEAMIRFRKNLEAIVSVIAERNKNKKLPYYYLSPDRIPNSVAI
Procedure: as §1, §2, §3, §4, §5

SMILES	IC50 (cyclooxygenase) [µM]	IC50 (5-lipoxygenase) [µM]
COc1cc(C=Cc2cc(C(F)(F)F)[nH]n2)ccc1O [Example 10A, 3-[β-(4'-Hydroxy-3'-methoxyphenyl)ethenyl]-5-trifluoromethylpyrazole]	4.5	3.8
CCOC(=O)Cn1nc(C)cc1/C=C/c1cc(OC)c(O)c(OC)c1 [Example 10D, (E)-5-[β-(4'-Hydroxy-3',5'-dimethoxyphenyl)ethenyl]3-methyl-1H-pyrazole-1-acetic acid, ethyl ester]	> 30	0.3
COC(=O)Cn1nc(C=Cc2cc(C(C)(C)C)c(O)c(C(C)(C)C)c2)cc1C [Example 10G-1, 3-[β-(4'-Hydroxy-3',5'-di-t-butylphenyl)ethenyl]-5-methyl-1H-pyrazole-1-acetic acid, methyl ester]	> 30	4.5
COC(=O)Cn1nc(C)cc1C=Cc1cc(C(C)(C)C)c(O)c(C(C)(C)C)c1 [Example 10G-2, 5-[β-(4'-hydroxy-3',5'-di-t-butylphenyl)ethenyl]-3-methyl-1H-pyrazole-1-acetic acid, methyl ester]	> 30	4.1
COC(=O)Cn1nc(C=Cc2cc(OC)c(O)c(OC)c2)cc1C [Example 10H, 3-[β-(4'-Hydroxy-3',5'-dimethoxyphenyl)ethenyl]-5-methyl-1H-pyrazole-1-acetic acid, methyl ester]	> 30	9.5
COC(=O)Cn1nc(C)cc1C=Cc1ccc(O)c(OC)c1 [Example 10I, 5-[β-(4'-Hydroxy-3'-methoxyphenyl)ethenyl]-3-methyl-1H-pyrazole-1-acetic acid methyl ester]	> 25	> 10
COC(=O)Cn1nc(C=Cc2ccc(O)c(OC)c2)cc1C [Example 10J, 3-[β-(4'-Hydroxy-3'-methoxyphenyl)ethenyl]-5-methyl-1H-pyrazole-1-acetic acid, methyl ester]	30	> 10
COc1cc(C=Cc2cc(C)n(CC(=O)O)n2)ccc1O [Example 10K, 3-[β-(4'-Hydroxy-3'-methoxyphenyl)ethenyl]-5-methyl-1H-pyrazole-1-acetic acid]	–	> 20
COc1cc(C=Cc2cc(C)nn2CC(=O)O)ccc1O [Example 10L, 5-[β-(4'-Hydroxy-3'-methoxyphenyl)ethenyl]-3-methyl-1H-pyrazole-1-acetic acid]	–	> 20
COc1cc(C=Cc2cc(C)nn2CC(=O)O)cc(OC)c1O [Example 10M, 5-[β-(4'-Hydroxy-3',5'-dimethoxyphenyl)ethenyl]-3-methyl-1H-pyrazole-1-acetic acid]	> 30	> 30
COc1cc(C=Cc2cc(C)n(CC(=O)O)n2)cc(OC)c1O [Example 10N, 3-[β-(4'-hydroxy-3',5'-dimethoxyphenyl)ethenyl]-5-methyl-1H-pyrazole-1-acetic acid]	> 30	> 20
Cc1cc(C=Cc2cc(C(C)(C)C)c(O)c(C(C)(C)C)c2)n(CC(=O)O)n1 [Example 10P, 5-[β-(4'-Hydroxy-3',5'-di-t-butylphenyl)ethenyl]-3-methyl-1H-pyrazole-1-acetic acid]	> 30	12
Cc1cc(C=Cc2cc(C(C)(C)C)c(O)c(C(C)(C)C)c2)nn1CC(=O)O [Example 10Q, 3-[β-(4'-Hydroxy-3',5'-di-t-butylphenyl)ethenyl]-5-methyl-1H-pyrazole-1-acetic acid]	> 30	> 30
COc1cc(C=Cc2cc(-c3ccccc3)no2)cc(OC)c1O [Example 32D, 5-[β(4'-Hydroxy-3',5'-dimethoxyphenyl)ethenyl]-3-phenylisoxazole]	5.4	< 1
COc1cc(C=Cc2cc(-c3ccccc3)no2)ccc1O [Example 32E, 5-[β-(4'-Hydroxy-3'-methoxyphenyl)ethenyl]-3-phenyl-isoxazole]	2.8	4.5
COc1cccc(C=Cc2cc(C)no2)c1O [Example 32F, 5-[β-(2'-Hydroxy-3'-methoxyphenyl)ethenyl]-3-methylisoxazole]	30	12
Cc1cc(C=Cc2cc(Cl)cc(Cl)c2O)on1 [Example 32J, 5-[β-(2'-Hydroxy-3',5'-dichlorophenyl)ethenyl]-3-methylisoxazole]	> 30	4.7
COc1cc(C=Cc2cc(CCO)on2)ccc1O [Example 36A, 3-[β-(4'-Hydroxy-3'-methoxyphenyl)ethenyl]-5-(2'-hydroxyethyl)isoxazole]	–	21.5
COc1cc(C=Cc2cc(C)[nH]n2)ccc1OC(C)=O [Example 37, 3-[β-(4'-Acetoxy-3'-methoxyphenyl)ethenyl]-5-methylpyrazole]	–	3.5
COC(=O)C(=Cc1cc(OC)c(O)c(OC)c1)c1cc(C)no1 [Example 40, 5-[β-Carbomethoxy-β-(4'-hydroxy-3',5'-dimethoxyphenyl)ethenyl]-3-methylisoxazole]	> 25	> 10
COC(=O)C(=Cc1cc(Cl)c(O)c(Cl)c1)c1cc(C)no1 [Example 41, 5-[α-Carbomethoxy-β-(4'-hydroxy-3,5-dichlorophenyl)ethenyl]-3-methylisoxazole]	5	> 30
COC(=O)C(=Cc1cc(C)c(O)c(C)c1)c1cc(C)no1 [Example 43, 5-[α-Carbomethoxy-β-(4'-hydroxy-3',5'-dimethylphenyl)ethenyl]-3-methylisoxazole]	2.2	17
COC(=O)C(=Cc1cc(Br)c(O)c(Br)c1)c1cc(C)no1 [Example 44, 5-[α-Carbomethoxy-β-(4'-hydroxy-3',5'-dibromophenyl)ethenyl]-3-methylisoxazole]	5.2	12
COC(=O)C(=Cc1cc(Br)c(O)c(OC)c1)c1cc(C)no1 [Example 46A, 5-[α-Carbomethoxy-β-(3'-methoxy-4'-hydroxy-5'-bromophenyl)ethenyl]-3-methylisoxazole]	12	> 30
Cc1cc(C(=Cc2cc(C(C)(C)C)c(O)c(C(C)(C)C)c2)C(=O)O)on1 [Example 51, 5-[α-Carboxy-β-(4'-hydroxy-3',5'-bis(1,1-dimethylethyl)phenyl)ethenyl]-3-methylisoxazole]	2.5	20
Cc1cc(C(=Cc2cc(C)c(O)c(C)c2)C(=O)O)on1 [Example 52, 5-[α-Carboxy-β-(4'-hydroxy-3',5'-dimethylphenyl)ethenyl]-3-methylisoxazole]	> 20	> 20
